Source: patent US12415145B2, “Compositions that contain lipophilic plant material and surfactant, and related methods” (priority 2019, dated 2025)

Columns and labels:
Solubility in water = type: physicochemical
Text: The solubility of cannabinoid target compounds in water can be substantially affected by pH and by temperature. […] At a temperature of 70 degrees Celsius or higher, and pH of 10 or higher, the solubility of CBDA in water is over 20 milligrams per milliliter. Conversely, at a temperature of 4 degrees Celsius or lower and pH 4 of or lower, the solubility of CBDA in water is below 20 micrograms per milliliter. Consequently, a process of washing a plant extract composition that contains CBDA with acidified water having a low temperature can be effective to remove hydrophilic components from the plant extract composition, without removing much CBDA from the plant extract composition.

[1] = Solubility in high-KB amide surfactant (DMDA / Met10u)
Text: (§1) Another example of a processing step is a step of combining a liquid that contains target compound with anti-solvent. When a target compound is contained in a liquid, e.g., an organic solvent or water (together, “solvents”), an anti-solvent may be used to reduce the capacity of the solvent to contain the target compound, thereby supersaturating the solvent with the target compound. […] The use of an antisolvent can increase the efficiency of purification of a target compound by increasing the saturation of one or more target compounds in a solvent to which the target compounds are added or present. The antisolvent occupies the binding potential of a primary solvent for a target compound, thereby reducing the ability of the primary solvent to contain (e.g., dissolve) the target compound.
As an alternative to an “oiling-out” technique followed by a crystallization step, target compound dissolved in an aqueous solution (at high temperature and alkaline pH) can be separated from the aqueous solution by causing the target compound to directly form a separate solid phase such as crystals within the solution, i.e., to “crystallize out” of the solution, without an “oiling-out” step. Depending on the composition of the aqueous solution, e.g., if the aqueous solution contains a sufficiently high concentration and purity of dissolved target compound, the target compound may be caused to form crystals directly by reducing pH and temperature of the aqueous solution. […] A method as described may include adding surfactant (e.g., ninol CAA) or an oil or a solvent or additive that encourages crystallization or alternatively, oiling out.

[2] = Solubility in mineral oil; conditions: under certain conditions
Text: as §1

[3] = Thermal stability (decarboxylation); type: physicochemical; conditions: saturated solution of CBDA in Met10u
Description: A saturated solution of CBDA in Met10u is prepared at 30C or preferably at 60C or higher, up to 100C or higher but below 130C. At a temperatures that is at least 130C, CBDA begins to lose its carboxylic moiety (decarboxylation) and become CBD. At temperatures above 130C CBD, not CBDA, could be separated if the desired end product is CBD.

| Compound | solubility of CBDA in water (Solubility in water; temperature of 4 degrees Celsius or lower, pH 4 or lower) | solubility of CBDA in water (Solubility in water; temperature of 70 degrees Celsius or higher, pH of 10 or higher) | solubility of CBDA in Met10u ([1]; at 60C) [%] | solubility in DMDA ([1]; at 70C) | solubility of CBDA in Met10u ([1]; at OC) [%] | solubility in mineral oil [2] | temperature at which CBDA begins to lose its carboxylic moiety (decarboxylation) and become CBD [3] | fraction of dissolved water in the high KB surfactant ([1]; water dissolved in surfactant of plant extract composition) [%] |
| --- | --- | --- | --- | --- | --- | --- | --- | --- |
| C=C(C)[C@@H]1CCC(C)=C[C@H]1c1c(O)cc(CCCCC)c(C(=O)O)c1O [CBDA] | below 20 micrograms per milliliter | over 20 milligrams per milliliter | 100 | over 1000 mg/ml | 1 | about 6 mg/ml | at least 130 C | – |
| C=CCCCCCCCC(=O)N(C)C [STEPOSOL™ MET-10U, N, N-dimethyl 9-decenamide] | – | – | – | – | – | – | – | 15 |
